Values quoted from earlier work, collected in patent publication US7390505B2, “Nanoparticulate topiramate formulations” (Elan Pharma International, Ltd., priority 2003, dated 2008).

What was measured:
[1] = not given; remark: listed apart in the source
[2] = human, in vivo

- withdrawal due to depression (in vivo): 3%
- withdrawal due to difficulty with memory (in vivo): 3%
- withdrawal due to paraesthesia (in vivo): 5 % of patients
- solubility in organic solvents ([1]; acetone, chloroform, dimethylsulfoxide, and ethanol): freely soluble
- solubility in alkaline solutions ([1]; solutions containing sodium hydroxide or sodium phosphate, pH of 9 to 10): most soluble
Compound: CC1(C)O[C@@H]2[C@@H](CO[C@@]3(COS(N)(=O)=O)OC(C)(C)O[C@@H]23)O1 [Topiramate, 2,3:4,5-Di-O-isopropylidene-β-D-fructopyranose sulfamate]
- patients who withdrew because of side effects (96 mg/d or 192 mg/d): 19%
- incidence of ataxia, impaired concentration, confusion, dizziness, fatigue, paraesthesia, somnolence and abnormal thinking [2]: ≥ 5 % of patients
